Reference: ChEMBL document CHEMBL4152235, “Synthesis, anionophoric activity and apoptosis-inducing bioactivity of benzimidazolyl-based transmembrane anion transporters” (Eur J Med Chem, 2018)
Activity calls are given as the source filed them. The rule behind the calls is not given here.

Assays:
HeLa [1] = test: Cytotoxicity against human HeLa cells assessed as reduction in cell viability at 50 uM after 48 hrs by MTT assay relative to control; format: functional
[2] = Ionophoric activity across pyranine dye encapsulated pH 7 egg yolk L-alpha-phosphatidylcholine-based liposomal membranes assessed as chloride ion transport by measuring induction of pH discharge after 20 mins in presence of NaCl loaded external vesicles by fluorescence method
A549 [3] = test: Cytotoxicity against human A549 cells assessed as reduction in cell viability at 50 uM after 48 hrs by MTT assay relative to control; format: functional; details: A549, 48 h
[4] = Binding affinity to chloride ion at 1.5 x 10^-5M using tetra(n-butyl)ammonium chloride measured after 2 mins by spectrophotometric titration method
MCF7 [5] = test: Cytotoxicity against human MCF7 cells assessed as reduction in cell viability at 50 uM after 48 hrs by MTT assay relative to control; format: functional; details: MCF7, 48 h
HepG2 [6] = test: Cytotoxicity against human HepG2 cells assessed as reduction in cell viability at 50 uM after 48 hrs by MTT assay relative to control; format: functional; details: HepG2, 48 h
[7] = Ionophoric activity across pyranine dye encapsulated pH 7 egg yolk L-alpha-phosphatidylcholine-based liposomal membranes assessed as chloride ion transport by measuring induction of pH discharge after 20 mins in presence of NaCl loaded external vesicles by fluorescence method relative to m-Bimbe
MCF7 [8] = test: Cytotoxicity against human MCF7 cells assessed as reduction in cell viability after 48 hrs by MTT assay; format: functional, cell-based; details: MCF7, 48 h
HepG2 [9] = test: Cytotoxicity against human HepG2 cells assessed as reduction in cell viability after 48 hrs by MTT assay; format: functional, cell-based; details: HepG2, 48 h
HeLa [10] = test: Cytotoxicity against human HeLa cells assessed as reduction in cell viability after 48 hrs by MTT assay; format: functional, cell-based
A549 [11] = test: Cytotoxicity against human A549 cells assessed as reduction in cell viability after 48 hrs by MTT assay; format: functional, cell-based; details: A549, 48 h
L02 = test: Cytotoxicity against human LO2 cells assessed as reduction in cell viability after 48 hrs by MTT assay; format: cell-based; details: L02, 48 h
[12] = Binding affinity to chloride ion assessed as 1:1 compound-Cl- complex formation at 4.1 mM using tetra(n-butyl)ammonium chloride by ESI MS spectrometric method
HeLa [13] = test: Ionophoric activity across human HeLa cells assessed as chloride ion efflux at 10 uM after 3 hrs by acridine orange staining based fluorescence microscopic analysis; format: cell-based
MCF7 [14] = test: Ionophoric activity across human MCF7 cells assessed as chloride ion efflux up to 10 uM after 2 hrs by MQAE dye based fluorescence assay; format: cell-based
HeLa [15] = test: Ionophoric activity across human HeLa cells assessed as chloride ion efflux up to 10 uM after 2 hrs by MQAE dye based fluorescence assay; format: cell-based
[16] = Binding affinity to chloride ion at 1.5 x 10^-5M using tetra(n-butyl)ammonium chloride measured after 5 mins by spectrophotometric titration method

EC50 [2]	EC50 ([2]; read-out: EC50) [µM]	Ka [4] [×10³ /M]	fold change (FC) [7]	Activity [12]	Activity [2]	Ka [16] [×10³ /M]	Compound	inhibition at 50 µM (HeLa [1]) [%]	inhibition at 50 µM (A549 [3]) [%]	inhibition at 50 µM (MCF7 [5]) [%]	inhibition at 50 µM (HepG2 [6]) [%]	IC50 (MCF7 [8]) [µM]	IC50 (HepG2 [9]) [µM]	IC50 (HeLa [10]) [µM]	IC50 (A549 [11]) [µM]	IC50 (L02) [µM]	Activity (HeLa [13])	Activity (MCF7 [14])	Activity (HeLa [15])
8.19 ×10⁻³ mol%	0.11	2.22	790				O=[N+]([O-])c1ccc2nc(-c3cccc(-c4nc5ccc([N+](=O)[O-])cc5[nH]4)c3)[nH]c2c1	59.2	52.1	47.4	15.4								
							COc1cccc2c1C(=O)c1c(O)c3c(c(O)c1C2=O)C[C@@](O)(C(=O)CO)C[C@@H]3O[C@H]1C[C@H](N)[C@H](O)[C@H](C)O1 [DOXORUBICIN]					0.8	2.1	0.5	0.6	0.11			
							Cn1c(-c2cccc(-c3nc4ccccc4n3C)c2)nc2ccccc21	43.2	22.2	23.3	49.1								
6.47 mol%	85.8	2.48		Active			c1cc(-c2nc3ccccc3[nH]2)cc(-c2nc3ccccc3[nH]2)c1	96.5	91.1	31.9	69.5	> 100	20.6	8.5	38.5	19.9	Active	Active	Active
							c1ccc(-c2nc3ccccc3[nH]2)cc1	8.1	1.2	25.5	11.6								
							c1ccc2[nH]c(-c3ccc(-c4nc5ccccc5[nH]4)cc3)nc2c1	59.6	53.1	63.3	17.4								
							c1ccc(-c2nc3ccccc3[nH]2)c(-c2nc3ccccc3[nH]2)c1	24.9	-6	11.6	3.6								
							Fc1ccc2nc(-c3cccc(-c4nc5ccc(F)cc5[nH]4)c3)[nH]c2c1	83.5	33.6	26.4	78.9	> 100	17.3 to 17.4	11.6	> 100	20.8			
							Clc1ccc2nc(-c3cccc(-c4nc5ccc(Cl)cc5[nH]4)c3)[nH]c2c1	95.6	82.4	90.5	98.4	25.9	9.1	10.7	23.7	13.7			
9.59 ×10⁻² mol%	1.27	4.52	67				FC(F)(F)c1ccc2nc(-c3cccc(-c4nc5ccc(C(F)(F)F)cc5[nH]4)c3)[nH]c2c1	100	99.3	98.8	100	12.8	6.6	8	8.9	10.9	Active	Active	Active
							Brc1ccc2nc(-c3cccc(-c4nc5ccc(Br)cc5[nH]4)c3)[nH]c2c1	98	92.6	93.5	93.1	9.7	12.1	21.1	21.9	17.8			
0.32 mol%	4.24		20	Active	Dose-dependent effect	1.56	COc1cc(-c2nc3ccc([N+](=O)[O-])cc3[nH]2)cc(-c2nc3ccc([N+](=O)[O-])cc3[nH]2)c1	85.3	67.7	96.3	96.7	17.1	8.9	1	18.5	26.3			
